Patent publication US12357603B2, “Acyl sulfonamides for treating cancer” (Bayer Aktiengesellschaft, priority 2019, dated 2025)

Key:
[1] = molecular target: Recombinant human His-tagged Kat6a protein (amino acids 194-810) (Homo sapiens (Human), UniProt Q92794); experiment: Kat6a activity assay (TR-FRET, acetylation of biotinylated Histone-H4-derived peptide); type: biochemical; details: 60 mins at 22° C., read-out: KAT6A-DPF/HAT domain IC50 [mol/l] (arithmetic mean)
How it was run: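 Sf9-expressed human His-Kat6a (aa 194-810) incubated 60 min at 22 °C with compounds (0.01-20 μM) in Tris pH 8 buffer containing 220 nM biotinylated H4 peptide (aa 1-24) and 600 nM acetyl-CoA. Acetyl-K8 detected by TR-FRET (665/620 nm ratio); IC50 by four-parameter fit versus DMSO controls.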

[2] = tested on: ESR1 transcription (luciferase signal in MVLN cells); experiment: Repression of ESR1 transcription, luciferase reporter in MVLN cells; type: cell-based; details: Homo sapiens, MVLN, inhibition of luciferase signal in MVLN cells; arithmetic mean
How it was run: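 MVLN cells (constitutive ER, stably carrying a Vitellogenin A2 hormone-responsive element–luciferase reporter) treated in duplicate; luciferase read after 24 h. Cell density checked by Alamar Blue fluorescence (530/590 nm) after 2 h to exclude cell-loss effects.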

[3] = molecular target: Recombinant human GST-tagged Kat6b protein (431-end); experiment: Kat6b activity assay (TR-FRET, acetylation of biotinylated Histone-H4-derived peptide); type: biochemical; details: 30 mins at 22° C., read-out: KAT6B activity assay IC50 [mol/l] (arithmetic mean)
[4] = tested on: MDA-MB-436 cells; experiment: Proliferation assay MDA-MB-436, negative control cell line (Alamar Blue, 144 h); type: cell-based; details: Homo sapiens, MDA-MB-436, 144 h, arithmetic mean
How it was run: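 MDA-MB-436 cells (3000/well, DMEM/Ham's F12 with 2.5% FBS) treated 24 h after plating with compounds at 2.0×10E-5 to 2.0×10E-9 M (9 dilutions, 0.2% DMSO), triplicates, 144 h at 37 °C, 5% CO2. Viability by Alamar Blue, 2 h, fluorescence at 590 nm.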

[5] = tested on: ZR-75-1 cells; experiment: Proliferation assay ZR-75-1 (Alamar Blue, 144 h); type: cell-based; details: Homo sapiens, ZR-75-1, 144 h, arithmetic mean, read-out: ZR75-1 proliferation assay, EC50 [M] (arithmetic mean)
How it was run: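 Cells seeded at 3000/well in RPMI 1640 with 2.5% FBS and treated 24 h later across 2.0×10E-5 to 2.0×10E-9 M (9 dilutions, 0.2% DMSO, triplicate). After 144 h at 37 °C, 5% CO2, viability read by Alamar Blue fluorescence at 590 nm following 2 h reagent incubation.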

Sequence of Recombinant human His-tagged Kat6a protein (amino acids 194-810) (Q92794 194-810): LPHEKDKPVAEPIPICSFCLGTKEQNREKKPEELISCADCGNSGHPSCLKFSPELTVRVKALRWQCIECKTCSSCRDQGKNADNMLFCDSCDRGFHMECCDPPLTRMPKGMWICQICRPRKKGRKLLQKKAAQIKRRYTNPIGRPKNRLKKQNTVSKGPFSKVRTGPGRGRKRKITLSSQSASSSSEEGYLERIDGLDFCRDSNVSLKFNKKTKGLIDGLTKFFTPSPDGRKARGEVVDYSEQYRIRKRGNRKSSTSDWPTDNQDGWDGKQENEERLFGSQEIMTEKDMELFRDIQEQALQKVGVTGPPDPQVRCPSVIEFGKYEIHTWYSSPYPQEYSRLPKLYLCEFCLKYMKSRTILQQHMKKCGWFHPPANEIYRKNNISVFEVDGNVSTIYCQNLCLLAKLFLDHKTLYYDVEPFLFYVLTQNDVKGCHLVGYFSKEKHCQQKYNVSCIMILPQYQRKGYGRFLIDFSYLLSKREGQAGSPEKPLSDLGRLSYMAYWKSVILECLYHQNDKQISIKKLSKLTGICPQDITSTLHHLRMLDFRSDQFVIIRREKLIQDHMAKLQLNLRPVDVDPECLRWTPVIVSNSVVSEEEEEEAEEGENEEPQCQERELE

SMILES	IC50 [1]	IC50 [2]	IC50 [3]	EC50 [4]	EC50 [5]
CN(C)c1ccc2cc(C(=O)NS(=O)(=O)c3ccccc3OCC(F)(F)F)oc2c1 [Example 74, 6-(Dimethylamino)-N-[2-(2,2,2-trifluoroethoxy)benzene-1-sulfonyl]-1-benzofuran-2-carboxamide]	128 nM	117 nM	228 nM	> 20000 nM	1.65e-07 M
CN(C)c1ccc2cc(C(=O)NS(=O)(=O)c3ccccc3OCC(F)F)oc2c1 [Example 75, N-[2-(2,2-Difluoroethoxy)benzene-1-sulfonyl]-6-(dimethylamino)-1-benzofuran-2-carboxamide]	163 nM	130 nM	246 nM	> 20000 nM	1.65e-07 M
CC(C)COc1ccccc1S(=O)(=O)NC(=O)c1cc2ccc(N(C)C)cc2o1 [Example 76, 6-(Dimethylamino)-N-[2-(2-methylpropoxy)benzene-1-sulfonyl]-1-benzofuran-2-carboxamide]	88.7 nM	146 nM	190 nM	> 20000 nM	1.95e-07 M
CC(C)c1ccccc1S(=O)(=O)NC(=O)c1cc2ccc(N(C)C)cc2o1 [Example 77, 6-(Dimethylamino)-N-[2-(propan-2-yl)benzene-1-sulfonyl]-1-benzofuran-2-carboxamide]	272 nM	152 nM	546 nM	> 20000 nM	1.48e-06 M
CCOc1ccc(I)cc1S(=O)(=O)NC(=O)c1cc2ccc(N(C)C)cc2o1 [Example 78, 6-(Dimethylamino)-N-(2-ethoxy-5-iodobenzene-1-sulfonyl)-1-benzofuran-2-carboxamide]	32.7 nM	153 nM	87 nM	> 20000 nM	2.79e-06 M
CN(C)c1ccc2cc(C(=O)NS(=O)(=O)c3ccccc3OC(F)F)oc2c1 [Example 79, N-[2-(Difluoromethoxy)benzene-1-sulfonyl]-6-(dimethylamino)-1-benzofuran-2-carboxamide]	188 nM	164 nM	200 nM	> 20000 nM	2.22e-07 M
CCOc1cccc(-c2ccccc2)c1S(=O)(=O)NC(=O)c1cc2ccc(N(C)C)cc2o1 [Example 80, 6-(Dimethylamino)-N-(3-ethoxy[1,1′-biphenyl]-2-sulfonyl)-1-benzofuran-2-carboxamide]	73.8 nM	172 nM	68.8 nM	> 20000 nM	3.29e-07 M
CCOc1ncccc1S(=O)(=O)NC(=O)c1cc2ccc(N(C)C)cc2o1 [Example 81, 6-(Dimethylamino)-N-(2-ethoxypyridine-3-sulfonyl)-1-benzofuran-2-carboxamide]	320 nM	188 nM	377 nM	> 20000 nM	4.06e-07 M
CN(C)c1ccc2cc(C(=O)NS(=O)(=O)c3ccccc3OC3COC3)oc2c1 [Example 82, 6-(Dimethylamino)-N-{2-[(oxetan-3-yl)oxy]benzene-1-sulfonyl}-1-benzofuran-2-carboxamide]	237 nM	201 nM	265 nM	> 20000 nM	2e-07 M
CN(C)c1ccc2cc(C(=O)NS(=O)(=O)c3ccccc3Oc3ccccc3)oc2c1 [Example 85, 6-(Dimethylamino)-N-(2-phenoxybenzene-1-sulfonyl)-1-benzofuran-2-carboxamide]	115 nM	232 nM	186 nM	> 20000 nM	4e-07 M

The next lines start with results.

IC50 [1]	IC50 [2]	IC50 [3]	EC50 [4]	SMILES	EC50 [5]
64.9 nM	235 nM	80 nM	> 20000 nM	COc1ccc(Cn2cccn2)cc1S(=O)(=O)NC(=O)c1cc2ccc(N(C)C)cc2o1 [Example 86, 6-(Dimethylamino)-N-{2-methoxy-5-[(1H-pyrazol-1-yl)methyl]benzene-1-sulfonyl}-1-benzofuran-2-carboxamide]	1.57e-07 M
97.3 nM	249 nM	104 nM	> 20000 nM	Cc1cnc2c(S(=O)(=O)NC(=O)c3cc4ccc(N(C)C)cc4o3)cccc2c1 [Example 87, 6-(Dimethylamino)-N-(3-methylquinoline-8-sulfonyl)-1-benzofuran-2-carboxamide]	4.18e-07 M
105 nM	256 nM	205 nM	4650 nM	CCOc1ccc([N+](=O)[O-])cc1S(=O)(=O)NC(=O)c1cc2ccc(N(C)C)cc2o1 [Example 88, 6-(Dimethylamino)-N-(2-ethoxy-5-nitrobenzene-1-sulfonyl)-1-benzofuran-2-carboxamide]	3.2e-07 M
131 nM	279 nM	172 nM	> 20000 nM	CC(C)Oc1cccc(Cl)c1S(=O)(=O)NC(=O)c1cc2ccc(N(C)C)cc2o1 [Example 89, N-{2-chloro-6-[(propan-2-yl)oxy]benzene-1-sulfonyl}-6-(dimethylamino)-1-benzofuran-2-carboxamide]	4.45e-07 M
194 nM	312 nM	357 nM	> 20000 nM	CCCCCOc1ccccc1S(=O)(=O)NC(=O)c1cc2ccc(N(C)C)cc2o1 [Example 90, 6-(Dimethylamino)-N-[2-(pentyloxy)benzene-1-sulfonyl]-1-benzofuran-2-carboxamide]	8.08e-07 M
74.2 nM	365 nM	92.2 nM	> 20000 nM	Cc1ccnc2c(S(=O)(=O)NC(=O)c3cc4ccc(N(C)C)cc4o3)cccc12 [Example 91, 6-(Dimethylamino)-N-(4-methylquinoline-8-sulfonyl)-1-benzofuran-2-carboxamide]	7.79e-07 M
100 nM	457 nM	173 nM	> 20000 nM	CC(C)Cc1ccc2cccc(S(=O)(=O)NC(=O)c3cc4ccc(N(C)C)cc4o3)c2n1 [Example 93, 6-(Dimethylamino)-N-[2-(2-methylpropyl)quinoline-8-sulfonyl]-1-benzofuran-2-carboxamide]	8.56e-07 M
502 nM	1440 nM	610 nM	> 20000 nM	CCOc1cccnc1S(=O)(=O)NC(=O)c1cc2ccc(N(C)C)cc2o1 [Example 101, 6-(Dimethylamino)-N-(3-ethoxypyridine-2-sulfonyl)-1-benzofuran-2-carboxamide]	1.4e-06 M
7.48 nM	12.4 nM	3.82 nM	> 20000 nM	CN(C)c1cc(F)c2cc(C(=O)NS(=O)(=O)c3ccccc3OC3CC3)oc2c1 [Example 110, N-[2-(Cyclopropyloxy)benzene-1-sulfonyl]-6-(dimethylamino)-4-fluoro-1-benzofuran-2-carboxamide]	7.12e-08 M
8.93 nM	15.4 nM	19 nM	> 20000 nM	CCCOc1ccccc1S(=O)(=O)NC(=O)c1cc2c(F)cc(N(C)C)cc2o1 [Example 111, 6-(Dimethylamino)-4-fluoro-N-(2-propoxybenzene-1-sulfonyl)-1-benzofuran-2-carboxamide]	4.89e-08 M
17.7 nM	45.2 nM	18.1 nM	> 20000 nM	COc1ccccc1S(=O)(=O)NC(=O)c1cc2c(F)cc(N(C)C)cc2o1 [Example 112, 6-(Dimethylamino)-4-fluoro-N-(2-methoxybenzene-1-sulfonyl)-1-benzofuran-2-carboxamide]	4.78e-08 M
7.25 nM	70.3 nM	7.24 nM	> 20000 nM	CCOc1ccc(Br)cc1S(=O)(=O)NC(=O)c1cc2c(F)cc(N(C)C)cc2o1 [Example 113, N-(5-Bromo-2-ethoxybenzene-1-sulfonyl)-6-(dimethylamino)-4-fluoro-1-benzofuran-2-carboxamide]	1.02e-07 M
114 nM	58 nM	150 nM	> 20000 nM	COc1ccccc1S(=O)(=O)NC(=O)c1cc2ccc(N(C)C)cc2o1 [Example 114, 6-(Dimethylamino)-N-(2-methoxybenzene-1-sulfonyl)-1-benzofuran-2-carboxamide]	1.07e-07 M
64.6 nM	64.2 nM	87.2 nM	> 20000 nM	CCCOc1ccc(C)cc1S(=O)(=O)NC(=O)c1cc2ccc(N(C)C)cc2o1 [Example 115, 6-(Dimethylamino)-N-(5-methyl-2-propoxybenzene-1-sulfonyl)-1-benzofuran-2-carboxamide]	7.02e-08 M
